Measurements taken from US12264173B2 (GILEAD SCIENCES, INC., priority 2020, dated 2025).
Read-outs that look alike come from different tables or passages of the source.

Experiments:
Assay type in all cases: cell-based
[1] = system: HRV16; assay: HRV16 HeLa EC50 (cytopathic effect in H1-HeLa cells)
In short: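 Read-out is luminescent cell viability (CellTiter-Glo) after 96 h of infection at 33 °C, scaled between uninfected and infected-untreated wells. Before infection with titrated virus, compounds went onto H1-HeLa cells as triplicate 3-fold dilution series.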

[2] = system: RSV A2; assay: RSV NHBE EC50 (RSV A2 antiviral assay in NHBE cells); details: Table 3, NHBE cells, RSV A2, 4 days, read-out: RSV NHBE EC50
In short: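 Read-out: CellTiter-Glo luminescence of cell viability after 4 days at 37° C. Primary NHBE cells, 7,500/well, 3-fold compound dilutions, 0.05% DMSO, infected with RSV A2 (1×10^4.5 TCID/mL).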

[3] = system: DENV2 replicon; assay: DENV-2 Huh-7 Rep EC50 (replicon luminescence)
Method: In 384 well plates (Greiner, Cat #781091), compounds were acoustically transferred at 200 nl per well in a 8 compound (4 replicates) or 40 compound dose response format (3 replicates). For all plates tested, Balapiravir, GS-5734 and NITD008 were included as positive inhibition controls alongside 0% inhibition, DMSO-only negative control wells. Following compound addition, Huh-7 cells containing the DENV2 replicon construct were harvested following standard cell culture procedures and were adjusted to a concentration of 1.25E5 cells/mL in cell culture media composed of cDMEM without genticin. 40 μL of the cell stock was then added to each well for a final cell density of 5,000 cells/well. Cell and compound mixtures were incubated at 37° C./5% CO2 for 48 hours. Prior to harvesting cells, EnduRen Live Cell Substrate (Promega, Cat #E6481) was prepared by suspending 3.4 mg into 100 uL of DMSO to generate a 60 mM stock solution. The stock solution was then diluted 1:200 in pre-warmed cDMEM and 10 uL of this diluted solution was added to each well of the 384 well plates. Plates were then centrifuged at 500 rpm briefly and were placed on a plate shaker for 2 min. Following mixing, plates were incubated at […] for 1.5 hours prior to measuring luminescence on an Envision luminometer.

[4] = system: RSV strain A2; assay: microbe, parasite or virus in culture; details: Table 3, HEp-2 cells, RSV A2, 4 days, read-out: RSV HEp-2 EC50
In short: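 Cytopathic-effect protection assay: HEp-2 cells (50,000/mL) infected with pre-titered RSV A2 onto 3-fold serial compound dilutions, incubated 4 days at 37° C. Cell viability read by CellTiter-Glo luminescence; percent inhibition derived against 0% and 100% virus-inhibition controls.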

[5] = 96 h, Table 3; H1-HeLa cells, 96 h; read-out: HRV16 HeLa EC50
[6] = human respiratory syncytial virus, NHBE, 96 h
[7] = Dengue virus, DENV2, Huh-7, 48 h, read-out: DENV-2 REP Huh7 EC50
[8] = human respiratory syncytial virus, HEp-2, 96 h
[9] = Table 3; H1-HeLa cells, 96 h; read-out: HRV16 HeLa EC50
[10] = Table 3, Huh-7 DENV2 replicon cells, 48 hours, read-out: DENV-2 REP Huh7 EC50
[11] = Dengue virus, DENV2, Huh-7, 48 h, read-out: DENV-2 REP Huh7 EC50, Table 3, Huh-7 DENV2 replicon cells, 48 hours

**Q.** What does the source list for `COC(=O)[C@H](C)N[P@](=O)(OC[C@@]1(C#N)O[C@@H](c2ccc3c(N)ncnn23)[C@H](OC(C)=O)[C@@H]1OC(C)=O)Oc1ccccc1` (single isomer, unassigned) [Example 131]?
**A.** EC50 [1, 5]: 782 nM; EC50 [2, 6]: 47 nM; EC50 [3, 7]: 19200 nM; EC50 [4, 8]: 103 nM

**Q.** Which results are given for `CC(=O)O[C@H]1[C@H](c2ccc3c(N)ncnn23)O[C@](C#N)(CO[P@@](=O)(N[C@@H](C)C(=O)OC(C)C)Oc2ccccc2)[C@H]1OC(C)=O` [Example 89, (2R,3S,4S,5S)-5-(4-Aminopyrrolo[2,1-f][1,2,4]triazin-7-yl)-2-cyano-2-((((S)-(((S)-1-isopropoxy-1-oxopropan-2-yl)amino)(phenoxy)phosphoryl)oxy)methyl) tetrahydrofuran-3,4-diyl diacetate]?
**A.** EC50 [1, 5]: 785 nM; EC50 [2, 6]: 126 nM; EC50 [3, 7]: 49700 nM; EC50 [4, 8]: 195 nM

**Q.** What does the source list for `CCC(=O)OC1C(c2ccc3c(N)ncnn23)OC(C#N)(COP(=O)(NC(C)C(=O)OCC2CCC2)Oc2ccccc2)C1OC(=O)CC` (centres unmarked) [Example 92]?
**A.** EC50 [1, 9]: 104 nM; EC50 [2]: 33 nM; EC50 [3, 10]: 13600 nM; EC50 [4]: 41 nM

**Q.** `CCC(=O)OC1C(c2ccc3c(N)ncnn23)OC(C#N)(COP(=O)(NC(C)C(=O)OCC2COC2)Oc2ccccc2)C1OC(=O)CC` (single isomer, unassigned) [Example 205] was tested. Which EC50 [1, 9] did it give?
**A.** 286 nM

**Q.** What about the EC50 [2] of the same compound?
**A.** 21 nM

**Q.** What about the EC50 [3, 10] of the same compound?
**A.** 19000 nM

**Q.** What about the EC50 [4] of the same compound?
**A.** 164 nM

**Q.** Which EC50 [1, 5] does the source give for `COCC(=O)O[C@H]1[C@H](c2ccc3c(N)ncnn23)O[C@](C#N)(CO[P@@](=O)(N[C@@H](C)C(=O)OC(C)C)Oc2ccccc2)[C@H]1OC(=O)COC` [Example 151, (2R,3S,4S,5S)-5-(4-aminopyrrolo[2,1-f][1,2,4]triazin-7-yl)-2-cyano-2-((((S)-(((S)-1-isopropoxy-1-oxopropan-2-yl)amino)(phenoxy)phosphoryl)oxy)methyl) tetrahydrofuran-3,4-diyl bis(2-methoxyacetate)] here?
**A.** 946 nM

**Q.** What about the EC50 [2, 6] of the same compound?
**A.** 751 nM

**Q.** What about the EC50 [3, 7] of the same compound?
**A.** 19500 nM

**Q.** And the EC50 [4, 8]?
**A.** 226 nM

**Q.** Which results are given for `CCC(=O)O[C@H]1[C@H](c2ccc3c(N)ncnn23)O[C@](C#N)(COP(=O)(N[C@@H](C)C(=O)OC[C@H]2CC[C@H](N)CC2)Oc2ccccc2)[C@H]1OC(=O)CC` (stereo partly drawn) [Example 159, (2R,3S,4S,5S)-2-((((((S)-1-(((1r,4S)-4-aminocyclohexyl)methoxy)-1-oxopropan-2-yl)amino)(phenoxy)phosphoryl)oxy)methyl)-5-(4-aminopyrrolo[2,1-f][1,2,4]triazin-7-yl)-2-cyanotetrahydrofuran-3,4-diyl dipropionate]?
**A.** EC50 [1, 5]: 33100 nM; EC50 [2, 6]: 1550 nM; EC50 [3, 7]: > 50000 nM; EC50 [4, 8]: 7990 nM

**Q.** Which results are given for `CCC(=O)O[C@H]1[C@H](c2ccc3c(N)ncnn23)O[C@](C#N)(COP(=O)(N[C@@H](C)C(=O)OC(C)C)N[C@@H](C)C(=O)OC(C)C)[C@H]1OC(=O)CC` [Example 123, ((2R,3S,4R,5S)-5-(4-aminopyrrolo[2,1-f][1,2,4]triazin-7-yl)-2-cyano-3,4-dipropionatetetrahydrofuran-2-yl)methyl bis-isopropyl L-alaninate phosphate]?
**A.** EC50 [1, 5]: 7570 nM; EC50 [2, 6]: 175 nM; EC50 [3, 11]: > 50000 nM; EC50 [4, 8]: 2280 nM

**Q.** Which results are given for `CCC(=O)O[C@H]1[C@H](c2ccc3c(N)ncnn23)O[C@](C#N)(COP(=O)(N[C@@H](C)C(=O)OC)Oc2ccccc2)[C@H]1OC(=O)CC` (stereo partly drawn) [Example 141, (2R,3S,4S,5S)-5-(4-aminopyrrolo[2,1-f][1,2,4]triazin-7-yl)-2-cyano-2-((((((S)-1-methoxy-1-oxopropan-2-yl)amino)(phenoxy)phosphoryl)oxy)methyl)tetrahydrofuran-3,4-diyl dipropionate]?
**A.** EC50 [1, 5]: 253 nM; EC50 [2, 6]: 23 nM; EC50 [3, 7]: 7490 nM; EC50 [4, 8]: 80 nM

**Q.** How did the EC50 [1, 5] turn out when `CCC(=O)O[C@H]1[C@H](c2ccc3c(N)ncnn23)O[C@](C#N)(CO[P@@](=O)(N[C@@H](C)C(=O)OCC(CC)CC)Oc2ccccc2)[C@H]1OC(=O)CC` [Example 180, (2R,3S,4S,5S)-5-(4-aminopyrrolo[2,1-f][1,2,4]triazin-7-yl)-2-cyano-2-((((S)-(((S)-1-(2-ethylbutoxy)-1-oxopropan-2-yl)amino)(phenoxy)phosphoryl)oxy)methyl) tetrahydrofuran-3,4-diyl dipropionate] was run?
**A.** 178 nM

**Q.** What about the EC50 [2, 6] of the same compound?
**A.** 31 nM

**Q.** What about the EC50 [3, 7] of the same compound?
**A.** 8310 nM

**Q.** And the EC50 [4, 8]?
**A.** 62 nM

**Q.** For `CCC(=O)O[C@H]1[C@H](c2ccc3c(N)ncnn23)O[C@](C#N)(CO[P@](=O)(N[C@@H](C)C(=O)OCC2CCOCC2)Oc2ccccc2)[C@H]1OC(=O)CC` [Example 109], which EC50 [1, 9] is on record?
**A.** 379 nM

**Q.** And the EC50 [2]?
**A.** 32 nM

**Q.** What about the EC50 [3, 10] of the same compound?
**A.** 26300 nM

**Q.** And the EC50 [4]?
**A.** 103 nM

**Q.** `COC(=O)[C@H](C)NP(=O)(N[C@@H](C)C(=O)OC)OC[C@@]1(C#N)O[C@@H](c2ccc3c(NC(C)=O)ncnn23)[C@H](OC(C)=O)[C@@H]1OC(C)=O` [Example 128] was tested. Which EC50 [1, 5] did it give?
**A.** > 50000 nM

**Q.** And the EC50 [2, 6]?
**A.** > 4140 nM

**Q.** And the EC50 [3, 11]?
**A.** > 50000 nM

**Q.** What about the EC50 [4, 8] of the same compound?
**A.** 18800 nM

**Q.** For `CCC(=O)O[C@H]1[C@H](c2ccc3c(N)ncnn23)O[C@](C#N)(COP(=O)(N[C@@H](C)C(=O)OC(C)C)Oc2ccc(OCCOC)cc2)[C@H]1OC(=O)CC` (stereo partly drawn) [Example 215, (2R,3S,4S,5S)-5-(4-aminopyrrolo[2,1-f][1,2,4]triazin-7-yl)-2-cyano-2-((((((S)-1-isopropoxy-1-oxopropan-2-yl)amino)(4-(2-methoxyethoxy)phenoxy)phosphoryl)oxy)methyl)tetrahydrofuran-3,4-diyl dipropionate], which EC50 [1, 5] is on record?
**A.** 1020 nM

**Q.** What about the EC50 [2, 6] of the same compound?
**A.** 142 nM

**Q.** And the EC50 [3, 7]?
**A.** 27200 nM

**Q.** And the EC50 [4, 8]?
**A.** 378 nM

**Q.** What does the source list for `CCOC(=O)[C@H](C)NP(=O)(N[C@@H](C)C(=O)OCC)OC[C@@]1(C#N)O[C@@H](c2ccc3c(N)ncnn23)[C@H](OC(C)=O)[C@@H]1OC(C)=O` [Example 134, ((2R,3S,4R,5S)-5-(4-aminopyrrolo[2,1-f][1,2,4]triazin-7-yl)-2-cyano-3,4-diacetatetetrahydrofuran-2-yl)methyl bis-ethyl L-alaninate phosphate]?
**A.** EC50 [1, 5]: > 50000 nM; EC50 [2, 6]: 1590 nM; EC50 [3, 11]: > 50000 nM; EC50 [4, 8]: 7340 nM

**Q.** For `CC(=O)O[C@H]1[C@H](c2ccc3c(N)ncnn23)O[C@](C#N)(COP(=O)(N[C@@H](C)C(=O)OCc2ccccc2)Oc2ccccc2)[C@H]1OC(C)=O` (stereo partly drawn) [Example 126, (2R,3S,4S,5S)-5-(4-aminopyrrolo[2,1-f][1,2,4]triazin-7-yl)-2-((((((S)-1-(benzyloxy)-1-oxopropan-2-yl)amino)(phenoxy)phosphoryl)oxy)methyl)-2-cyanotetrahydrofuran-3,4-diyl diacetate], which EC50 [1, 5] is on record?
**A.** 514 nM

**Q.** What about the EC50 [2, 6] of the same compound?
**A.** 45 nM

**Q.** What about the EC50 [3, 7] of the same compound?
**A.** 16000 nM

**Q.** What about the EC50 [4, 8] of the same compound?
**A.** 121 nM

**Q.** `CC(C)C(=O)O[C@H]1[C@H](c2ccc3c(N)ncnn23)O[C@](C#N)(COP(=O)(N[C@@H](C)C(=O)OC2CCC2)Oc2ccccc2)[C@H]1OC(=O)C(C)C` (stereo partly drawn) [Example 197, (2R,3S,4S,5S)-5-(4-aminopyrrolo[2,1-f][1,2,4]triazin-7-yl)-2-cyano-2-((((((S)-1-cyclobutoxy-1-oxopropan-2-yl)amino)(phenoxy)phosphoryl)oxy)methyl) tetrahydrofuran-3,4-diyl bis(2-methylpropanoate)] was tested. Which EC50 [1, 9] did it give?
**A.** 94 nM

**Q.** And the EC50 [2]?
**A.** 33 nM

**Q.** What about the EC50 [3, 10] of the same compound?
**A.** 4460 nM

**Q.** What about the EC50 [4] of the same compound?
**A.** 28 nM

**Q.** Which EC50 [1, 9] does the source give for `CC(=O)O[C@H]1[C@H](c2ccc3c(N)ncnn23)O[C@](C#N)(CO[P@](=O)(N[C@@H](C)C(=O)OCC2CCC2)Oc2ccccc2)[C@H]1OC(C)=O` [Example 96] here?
**A.** 417 nM

**Q.** And the EC50 [2]?
**A.** 20 nM

**Q.** What about the EC50 [3, 10] of the same compound?
**A.** 16800 nM

**Q.** And the EC50 [4]?
**A.** 63 nM

**Q.** How did the EC50 [1, 5] turn out when `CC(C)C(=O)O[C@H]1[C@H](c2ccc3c(N)ncnn23)O[C@](C#N)(CO[P@@](=O)(N[C@@H](C)C(=O)O[C@H]2CC[C@H](C(C)(C)C)CC2)Oc2ccccc2)[C@H]1OC(=O)C(C)C` [Example 80, (2R,3S,4S,5S)-5-(4-Aminopyrrolo[2,1-f][1,2,4]triazin-7-yl)-2-((((S)-(((S)-1-(((1r,4S)-4-(tert-butyl)cyclohexyl)oxy)-1-oxopropan-2-yl)amino)(phenoxy)phosphoryl)oxy)methyl)-2-cyanotetrahydrofuran-3,4-diyl bis(2-methylpropanoate)] was run?
**A.** 1570 nM

**Q.** And the EC50 [2, 6]?
**A.** 158 nM

**Q.** What about the EC50 [3, 7] of the same compound?
**A.** 5300 nM

**Q.** And the EC50 [4, 8]?
**A.** 1180 nM
